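At the GI50, growth is halved. At the TGI there is no net growth.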
How the values were obtained:
Test in all cases: growth of human tumour cells (NCI), 384-well format
SN12C renal = test system: SN12C renal
SK-MEL-2 melanoma = test system: SK-MEL-2 melanoma
NCI-H322M lung = test system: NCI-H322M lung
U251 glioblastoma = test system: U251 glioblastoma
HOP-62 NSCLC = test system: HOP-62 NSCLC
MOLT-4 leukemia = test system: MOLT-4 leukemia
PC-3 prostate = test system: PC-3 prostate
SF-539 CNS = test system: SF-539 CNS
HOP-92 NSCLC = test system: HOP-92 NSCLC
SK-MEL-28 melanoma = test system: SK-MEL-28 melanoma
NCI-H226 lung = test system: NCI-H226 lung
CCRF-CEM leukemia = test system: CCRF-CEM leukemia
SK-MEL-5 melanoma = test system: SK-MEL-5 melanoma
SF-295 CNS = test system: SF-295 CNS
CAKI-1 renal = test system: CAKI-1 renal
KM12 colon = test system: KM12 colon
SNB-19 CNS = test system: SNB-19 CNS
A498 renal = test system: A498 renal
IGROV1 ovarian = test system: IGROV1 ovarian
DU-145 prostate = test system: DU-145 prostate
OVCAR-4 ovarian = test system: OVCAR-4 ovarian
UACC-257 melanoma = test system: UACC-257 melanoma
MCF7 breast = test system: MCF7 breast
UO-31 renal = test system: UO-31 renal
SW-620 colon = test system: SW-620 colon
MDA-MB-231 breast = test system: MDA-MB-231 breast
OVCAR-8 ovarian = test system: OVCAR-8 ovarian
COLO 205 colon = test system: COLO 205 colon
M14 melanoma = test system: M14 melanoma
T-47D breast = test system: T-47D breast
RXF 393 renal = test system: RXF 393 renal
NCI-H522 lung = test system: NCI-H522 lung
786-0 renal = test system: 786-0 renal
HCT-15 colon = test system: HCT-15 colon
OVCAR-5 ovarian = test system: OVCAR-5 ovarian
HT29 colon = test system: HT29 colon
NCI-H23 lung = test system: NCI-H23 lung
ACHN renal = test system: ACHN renal
SR leukemia = test system: SR leukemia
SF-268 CNS = test system: SF-268 CNS
MALME-3M melanoma = test system: MALME-3M melanoma
MDA-MB-435 melanoma = test system: MDA-MB-435 melanoma
A549 NSCLC = test system: A549 NSCLC
HL-60(TB) leukemia = test system: HL-60(TB) leukemia
NCI-H460 NSCLC = test system: NCI-H460 NSCLC
K-562 leukemia = test system: K-562 leukemia
NCI/ADR-RES ovarian = test system: NCI/ADR-RES ovarian
HCC-2998 colon = test system: HCC-2998 colon
SK-OV-3 ovarian = test system: SK-OV-3 ovarian
HCT-116 colon = test system: HCT-116 colon
UACC-62 melanoma = test system: UACC-62 melanoma
TK-10 renal = test system: TK-10 renal
LOX IMVI melanoma = test system: LOX IMVI melanoma
OVCAR-3 ovarian = test system: OVCAR-3 ovarian
MDA-MB-468 breast = test system: MDA-MB-468 breast
BT-549 breast = test system: BT-549 breast
RPMI-8226 leukemia = test system: RPMI-8226 leukemia
SNB-75 CNS = test system: SNB-75 CNS
EKVX NSCLC = test system: EKVX NSCLC

## O=P1(S)OC[C@H]2O[C@@H]3[C@H](F)[C@@H]2OP(O)(=S)OC[C@H]2O[C@H]([C@H](F)[C@@H]2O1)n1cnc2c(ncnc21)NC/C=C/CNc1ncnc2c1ncn23 (some centres not stated)
SN12C renal
  GI50: > 100000 nM
  TGI: > 100 µM
SK-MEL-2 melanoma
  GI50: 2820 nM
  TGI: 52 µM
NCI-H322M lung
  GI50: > 100 µM
  TGI: > 100 µM
U251 glioblastoma
  GI50: > 100000 nM
  TGI: > 100 µM
HOP-62 NSCLC
  GI50: > 100000 nM
  TGI: > 100 µM
MOLT-4 leukemia
  GI50: 5.67 µM
  TGI: 20.6 µM
PC-3 prostate
  GI50: > 100000 nM
  TGI: > 100 µM
SF-539 CNS
  GI50: 7.46 µM
  TGI: > 100000 nM
HOP-92 NSCLC
  GI50: > 100000 nM
  TGI: > 100000 nM
SK-MEL-28 melanoma
  GI50: > 100000 nM
  TGI: > 100 µM
NCI-H226 lung
  GI50: 93.2 nM
  TGI: 361 nM
CCRF-CEM leukemia
  GI50: 39.2 µM
  TGI: > 100000 nM
SK-MEL-5 melanoma
  GI50: > 100000 nM
  TGI: > 100 µM
SF-295 CNS
  GI50: > 100 µM
  TGI: > 100 µM
CAKI-1 renal
  GI50: > 100000 nM
  TGI: > 100 µM
KM12 colon
  GI50: 51.2 µM
  TGI: > 100 µM
SNB-19 CNS
  GI50: > 100000 nM
  TGI: > 100 µM
A498 renal
  GI50: > 100000 nM
  TGI: > 100 µM
IGROV1 ovarian
  GI50: > 100000 nM
  TGI: > 100 µM
DU-145 prostate
  GI50: > 100000 nM
  TGI: > 100 µM
OVCAR-4 ovarian
  GI50: 11.3 µM
  TGI: > 100 µM
UACC-257 melanoma
  GI50: 151 nM
  TGI: 19.3 µM
MCF7 breast
  GI50: > 100000 nM
  TGI: > 100 µM
UO-31 renal
  GI50: > 100000 nM
  TGI: > 100 µM
SW-620 colon
  GI50: > 100000 nM
  TGI: > 100 µM
MDA-MB-231 breast
  GI50: > 100000 nM
  TGI: > 100 µM
OVCAR-8 ovarian
  GI50: > 100000 nM
  TGI: > 100 µM
COLO 205 colon
  GI50: 48.6 µM
  TGI: > 100 µM
M14 melanoma
  GI50: > 100000 nM
  TGI: > 100 µM
T-47D breast
  GI50: > 100000 nM
  TGI: > 100000 nM
RXF 393 renal
  GI50: 44.5 nM
  TGI: 19.7 µM
NCI-H522 lung
  GI50: 7.35 µM
  TGI: 44.2 µM
786-0 renal
  GI50: > 100000 nM
  TGI: > 100 µM
HCT-15 colon
  GI50: > 100000 nM
  TGI: > 100 µM
OVCAR-5 ovarian
  GI50: > 100 µM
  TGI: > 100 µM
HT29 colon
  GI50: 19.2 µM
  TGI: > 100 µM
NCI-H23 lung
  GI50: > 100 µM
  TGI: > 100 µM
ACHN renal
  GI50: > 100 µM
  TGI: > 100 µM
SR leukemia
  GI50: 29.5 nM
  TGI: 101 nM
SF-268 CNS
  GI50: > 100000 nM
  TGI: > 100 µM
MALME-3M melanoma
  GI50: > 100000 nM
  TGI: > 100 µM
MDA-MB-435 melanoma
  GI50: 2970 nM
  TGI: 46 µM
A549 NSCLC
  GI50: > 100 µM
  TGI: > 100 µM
HL-60(TB) leukemia
  GI50: 189 nM
  TGI: 400 nM
NCI-H460 NSCLC
  GI50: > 100000 nM
  TGI: > 100 µM
K-562 leukemia
  GI50: > 100000 nM
  TGI: > 100 µM
NCI/ADR-RES ovarian
  GI50: > 100 µM
  TGI: > 100 µM
HCC-2998 colon
  GI50: > 100000 nM
  TGI: > 100 µM
SK-OV-3 ovarian
  GI50: 24.3 µM
  TGI: > 100 µM
HCT-116 colon
  GI50: > 100000 nM
  TGI: > 100 µM
UACC-62 melanoma
  GI50: > 100000 nM
  TGI: > 100 µM
TK-10 renal
  GI50: > 100000 nM
  TGI: > 100 µM
LOX IMVI melanoma
  GI50: > 100000 nM
  TGI: > 100 µM
OVCAR-3 ovarian
  GI50: 4.99 µM
  TGI: 38.8 µM
MDA-MB-468 breast
  GI50: 2240 nM
  TGI: 7.62 µM
BT-549 breast
  GI50: 9.28 µM
  TGI: > 100000 nM
RPMI-8226 leukemia
  GI50: 22.1 µM
  TGI: > 100000 nM

## C=CC(=O)Nc1cc(N2CCN(CC)CC2)ccc1Nc1cc(N(C)C(=O)Nc2c(Cl)c(OC)cc(OC)c2Cl)ncn1
SN12C renal
  GI50: 2010 nM
  TGI: 3.74 µM
SK-MEL-2 melanoma
  GI50: 1210 nM
  TGI: 2.46 µM
NCI-H322M lung
  GI50: 10.5 µM
  TGI: 31 µM
U251 glioblastoma
  GI50: 1890 nM
  TGI: 3.44 µM
HOP-62 NSCLC
  GI50: 2450 nM
  TGI: 6.36 µM
MOLT-4 leukemia
  GI50: 0.91 µM
  TGI: 2.21 µM
PC-3 prostate
  GI50: 1810 nM
  TGI: 3.27 µM
SF-539 CNS
  GI50: 1.58 µM
  TGI: 2950 nM
HOP-92 NSCLC
  GI50: 1020 nM
  TGI: 2770 nM
SK-MEL-28 melanoma
  GI50: 2050 nM
  TGI: 4.39 µM
NCI-H226 lung
  GI50: 1840 nM
  TGI: 4390 nM
CCRF-CEM leukemia
  GI50: 1.56 µM
  TGI: 2920 nM
SK-MEL-5 melanoma
  GI50: 1800 nM
  TGI: 3.43 µM
SF-295 CNS
  GI50: 15.8 µM
  TGI: 29.4 µM
CAKI-1 renal
  GI50: 2640 nM
  TGI: 7.01 µM
KM12 colon
  GI50: 1.76 µM
  TGI: 3.23 µM
SNB-19 CNS
  GI50: 2890 nM
  TGI: 7.71 µM
A498 renal
  GI50: 1720 nM
  TGI: 3.14 µM
IGROV1 ovarian
  GI50: 1860 nM
  TGI: 3.66 µM
DU-145 prostate
  GI50: 1910 nM
  TGI: 3.76 µM
OVCAR-4 ovarian
  GI50: 2.03 µM
  TGI: 6.62 µM
UACC-257 melanoma
  GI50: 1420 nM
  TGI: 2.78 µM
SNB-75 CNS
  GI50: 1980 nM
  TGI: 4.31 µM
MCF7 breast
  GI50: 1750 nM
  TGI: 6.28 µM
UO-31 renal
  GI50: 2030 nM
  TGI: 4.08 µM
SW-620 colon
  GI50: 1770 nM
  TGI: 3.18 µM
MDA-MB-231 breast
  GI50: 1670 nM
  TGI: 3.31 µM
OVCAR-8 ovarian
  GI50: 1760 nM
  TGI: 3.31 µM
EKVX NSCLC
  GI50: 2340 nM
  TGI: 5.57 µM
COLO 205 colon
  GI50: 2.31 µM
  TGI: 4.24 µM
M14 melanoma
  GI50: 2380 nM
  TGI: 5.12 µM
T-47D breast
  GI50: 1310 nM
  TGI: 2990 nM
RXF 393 renal
  GI50: 680 nM
  TGI: 2.19 µM
NCI-H522 lung
  GI50: 1.63 µM
  TGI: 3.02 µM
786-0 renal
  GI50: 1710 nM
  TGI: 3.14 µM
HCT-15 colon
  GI50: 2830 nM
  TGI: 6.99 µM
OVCAR-5 ovarian
  GI50: 7.01 µM
  TGI: 19 µM
HT29 colon
  GI50: 1.97 µM
  TGI: 3.96 µM
NCI-H23 lung
  GI50: 3.68 µM
  TGI: 10 µM
ACHN renal
  GI50: 4.55 µM
  TGI: 10.7 µM
SR leukemia
  GI50: 922 nM
  TGI: 2230 nM
SF-268 CNS
  GI50: 1880 nM
  TGI: 3.96 µM
MALME-3M melanoma
  GI50: 1960 nM
  TGI: 3.47 µM
MDA-MB-435 melanoma
  GI50: 2560 nM
  TGI: 5.84 µM
A549 NSCLC
  GI50: 5.63 µM
  TGI: 13.1 µM
HL-60(TB) leukemia
  GI50: 1940 nM
  TGI: 3370 nM
NCI-H460 NSCLC
  GI50: 1730 nM
  TGI: 3.18 µM
K-562 leukemia
  GI50: 1850 nM
  TGI: 3.4 µM
NCI/ADR-RES ovarian
  GI50: > 44.6 µM
  TGI: > 78.5 µM
HCC-2998 colon
  GI50: 1700 nM
  TGI: 3.08 µM
SK-OV-3 ovarian
  GI50: 2.51 µM
  TGI: 6.71 µM
HCT-116 colon
  GI50: 1880 nM
  TGI: 3.46 µM
UACC-62 melanoma
  GI50: 1560 nM
  TGI: 3.03 µM
TK-10 renal
  GI50: 2180 nM
  TGI: 5.02 µM
LOX IMVI melanoma
  GI50: 1870 nM
  TGI: 3.28 µM
OVCAR-3 ovarian
  GI50: 1.4 µM
  TGI: 2.85 µM
MDA-MB-468 breast
  GI50: 785 nM
  TGI: 2.01 µM
BT-549 breast
  GI50: 1.4 µM
  TGI: 2730 nM
RPMI-8226 leukemia
  GI50: 0.605 µM
  TGI: 1520 nM
